Laboratory results as given in US20260092071A1, “COMPOUNDS AND COMPOSITIONS AS SMARCA2/4 DEGRADERS AND USES THEREOF” (REGENTS OF THE UNIVERSITY OF MICHIGAN, priority 2022, published 2026).
Where two headings read alike, the source gives them in different places.

Tests used:
[1] = biological target: SMARCA2 (Homo sapiens, UniProt P51531); test: HiBiT assay for protein degradation, Hela SMARCA2-HiBiT cells (A series); assay type: cell-based; parameters: Hela cells were genetically modified via CRISPR/Cas9 to fuse HiBiT to the carboxy terminus of SMARCA2; host or cells: HeLa (CRISPR/Cas9 HiBiT knock-in)
Procedure, shortened: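 SMARCA2 degradation was measured in HeLa cells whose endogenous SMARCA2 carries a carboxy-terminal HiBiT tag introduced by CRISPR/Cas9 (Promega CS302365). Cells were maintained in DMEM with FBS and penicillin-streptomycin. SMARCA2 levels were read at the end of the experiment by Nano-Glo® HiBiT lytic luminescence (Promega N3050) and analyzed in GraphPad Prism.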

[2] = biological target: SMARCA4 (Homo sapiens, UniProt P51532); test: HiBiT assay for protein degradation, Hela SMARCA4-HiBiT cells (A series); assay type: cell-based; parameters: fuse HiBiT to the carboxy terminus of SMARCA2 (Promega CS302365) or SMARCA4 (Promega CS3023225); host or cells: HeLa (CRISPR/Cas9 HiBiT knock-in); conditions: for DC50: read-out: SMARC A4 Hela HiBit DC50
Procedure, shortened: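 SMARCA4 degradation was measured in HeLa cells in which HiBiT had been knocked into the SMARCA4 carboxy terminus via CRISPR/Cas9 (Promega CS3023225). Cells were maintained in DMEM with FBS and penicillin-streptomycin. At the end of treatment, SMARCA4 levels were read by lytic HiBiT luminescence (Nano-Glo®, Promega N3050), and data were analyzed with GraphPad Prism.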

[3] = Hela SMARCA4-HiBiT cells, 24 hours treatment
[4] = Hela SMARCA2-HiBiT cells, 24 hours treatment; read-out: SMARC A2 Hela HiBit DC50
[5] = Hela SMARCA2-HiBiT cells, 24 hours treatment; read-out: SMARC A2 Hela HiBit Dmax (%)
[6] = Hela SMARCA4-HiBiT cells, 24 hours treatment, read-out: SMARC A4 Hela HiBit Dmax
[7] = HeLa, read-out: SMARC A2 Hela HiBit Dmax (%)
[8] = HeLa, read-out: SMARC A4 Hela HiBit Dmax(%)
[9] = Hela SMARCA4-HiBiT cells, 24 hours treatment, read-out: SMARC A4 Hela HiBit Dmax(%)

SMARCA4, sequence (P51532 whole entry): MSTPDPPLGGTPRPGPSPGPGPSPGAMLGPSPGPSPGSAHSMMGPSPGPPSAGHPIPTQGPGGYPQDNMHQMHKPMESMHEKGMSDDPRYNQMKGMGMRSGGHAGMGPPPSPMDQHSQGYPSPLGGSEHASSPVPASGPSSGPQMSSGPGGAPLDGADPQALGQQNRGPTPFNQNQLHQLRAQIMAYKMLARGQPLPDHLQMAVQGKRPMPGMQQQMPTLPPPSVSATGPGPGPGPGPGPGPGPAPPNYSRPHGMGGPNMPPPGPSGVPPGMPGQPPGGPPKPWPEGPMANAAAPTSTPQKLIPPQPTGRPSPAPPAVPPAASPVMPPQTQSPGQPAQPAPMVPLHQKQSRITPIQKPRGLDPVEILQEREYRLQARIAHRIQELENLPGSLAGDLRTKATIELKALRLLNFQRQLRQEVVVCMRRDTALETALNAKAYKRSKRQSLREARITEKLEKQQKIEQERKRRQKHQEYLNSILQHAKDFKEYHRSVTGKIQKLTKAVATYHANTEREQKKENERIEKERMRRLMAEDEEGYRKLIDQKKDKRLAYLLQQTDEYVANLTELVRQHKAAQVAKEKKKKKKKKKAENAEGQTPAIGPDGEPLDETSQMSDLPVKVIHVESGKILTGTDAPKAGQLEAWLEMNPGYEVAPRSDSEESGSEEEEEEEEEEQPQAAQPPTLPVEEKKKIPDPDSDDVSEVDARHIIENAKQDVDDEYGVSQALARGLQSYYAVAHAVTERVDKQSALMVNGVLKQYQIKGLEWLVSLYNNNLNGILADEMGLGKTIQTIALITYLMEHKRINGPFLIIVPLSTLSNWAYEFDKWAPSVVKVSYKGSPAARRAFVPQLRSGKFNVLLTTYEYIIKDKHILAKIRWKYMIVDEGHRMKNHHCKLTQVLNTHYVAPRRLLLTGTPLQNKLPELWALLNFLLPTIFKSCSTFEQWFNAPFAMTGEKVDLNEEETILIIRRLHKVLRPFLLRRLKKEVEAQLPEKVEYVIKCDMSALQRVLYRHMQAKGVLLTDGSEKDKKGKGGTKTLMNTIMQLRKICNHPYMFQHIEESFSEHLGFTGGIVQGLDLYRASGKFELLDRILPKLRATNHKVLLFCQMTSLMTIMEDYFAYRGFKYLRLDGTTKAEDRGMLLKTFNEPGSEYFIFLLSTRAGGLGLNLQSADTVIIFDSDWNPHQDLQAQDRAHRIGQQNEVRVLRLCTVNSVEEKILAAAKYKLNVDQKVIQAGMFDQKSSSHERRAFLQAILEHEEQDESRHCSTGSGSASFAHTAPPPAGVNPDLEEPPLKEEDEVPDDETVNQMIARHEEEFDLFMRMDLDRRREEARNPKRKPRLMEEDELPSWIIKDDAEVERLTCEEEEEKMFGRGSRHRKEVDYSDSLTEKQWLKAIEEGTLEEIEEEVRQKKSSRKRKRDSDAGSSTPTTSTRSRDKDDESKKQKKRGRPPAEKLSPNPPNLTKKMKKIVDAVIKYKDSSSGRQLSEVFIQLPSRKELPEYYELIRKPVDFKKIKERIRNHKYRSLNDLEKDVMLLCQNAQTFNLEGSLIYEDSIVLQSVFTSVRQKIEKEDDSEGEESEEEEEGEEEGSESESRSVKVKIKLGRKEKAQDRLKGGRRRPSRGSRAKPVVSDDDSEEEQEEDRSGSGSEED
SMARCA2, sequence (P51531 whole entry): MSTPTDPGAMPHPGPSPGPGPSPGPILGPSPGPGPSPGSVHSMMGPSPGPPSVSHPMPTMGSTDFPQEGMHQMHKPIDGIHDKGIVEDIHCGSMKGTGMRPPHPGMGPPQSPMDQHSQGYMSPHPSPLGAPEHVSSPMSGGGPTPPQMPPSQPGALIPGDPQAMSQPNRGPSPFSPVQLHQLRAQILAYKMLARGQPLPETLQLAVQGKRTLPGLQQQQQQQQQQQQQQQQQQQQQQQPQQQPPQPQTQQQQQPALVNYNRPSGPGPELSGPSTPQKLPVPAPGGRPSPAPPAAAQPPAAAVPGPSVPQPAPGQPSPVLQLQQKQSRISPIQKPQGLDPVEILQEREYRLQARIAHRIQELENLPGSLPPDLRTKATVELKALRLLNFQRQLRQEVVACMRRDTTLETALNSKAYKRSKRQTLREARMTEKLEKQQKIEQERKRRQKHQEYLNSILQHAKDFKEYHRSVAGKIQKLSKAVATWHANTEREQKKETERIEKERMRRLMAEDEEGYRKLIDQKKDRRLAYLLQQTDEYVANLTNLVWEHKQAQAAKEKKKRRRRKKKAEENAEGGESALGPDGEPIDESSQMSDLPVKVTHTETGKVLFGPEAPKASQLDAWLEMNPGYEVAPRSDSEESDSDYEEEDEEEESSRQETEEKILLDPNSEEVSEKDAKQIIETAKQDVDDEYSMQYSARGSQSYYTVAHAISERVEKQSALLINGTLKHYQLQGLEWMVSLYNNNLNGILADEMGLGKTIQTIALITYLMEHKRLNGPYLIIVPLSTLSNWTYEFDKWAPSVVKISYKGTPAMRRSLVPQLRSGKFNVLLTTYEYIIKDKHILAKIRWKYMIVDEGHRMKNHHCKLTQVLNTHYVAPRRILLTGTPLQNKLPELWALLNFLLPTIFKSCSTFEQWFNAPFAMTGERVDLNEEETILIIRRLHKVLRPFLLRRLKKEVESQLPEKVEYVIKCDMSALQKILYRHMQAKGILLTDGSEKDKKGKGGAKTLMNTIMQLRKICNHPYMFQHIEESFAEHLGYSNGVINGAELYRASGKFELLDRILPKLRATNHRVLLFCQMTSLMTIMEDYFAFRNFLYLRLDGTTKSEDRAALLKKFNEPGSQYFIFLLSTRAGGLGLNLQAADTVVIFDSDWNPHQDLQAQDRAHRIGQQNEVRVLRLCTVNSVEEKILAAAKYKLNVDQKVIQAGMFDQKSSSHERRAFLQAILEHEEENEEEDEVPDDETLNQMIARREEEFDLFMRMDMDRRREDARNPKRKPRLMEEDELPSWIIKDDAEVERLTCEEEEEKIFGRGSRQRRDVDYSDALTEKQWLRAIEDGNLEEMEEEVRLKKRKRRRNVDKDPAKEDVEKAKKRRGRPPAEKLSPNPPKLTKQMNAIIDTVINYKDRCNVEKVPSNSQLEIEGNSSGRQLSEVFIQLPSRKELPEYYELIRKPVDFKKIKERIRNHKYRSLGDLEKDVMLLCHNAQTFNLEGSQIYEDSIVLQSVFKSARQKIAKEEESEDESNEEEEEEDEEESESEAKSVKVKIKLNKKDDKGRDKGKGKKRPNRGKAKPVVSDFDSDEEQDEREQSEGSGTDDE

SMILES | DC50 [1, 4] [nM] | Dmax [1, 5] [%] | DC50 [2, 3] [nM] | Dmax [2, 6] [%] | Dmax [2, 9] [%] | other results
Cc1ncsc1-c1ccc([C@H](CN2CCOCC2)NC(=O)[C@@H]2C[C@@H](O)CN2C(=O)[C@@H](NC(=O)C23CCC(CN4CCC(c5ccc6c(c5)C5(CCCCC5)c5nc(=O)c7c(Br)cccc7n5-6)CC4)(CC2)C3)C(C)(C)C)cc1 [Compound A22, (2S,4R)-1-((S)-2-(4-((4-(4′-bromo-5′-oxo-5′H-spiro[cyclohexane-1,7′-indolo[1,2-a]quinazolin]-9′-yl)piperidin-1-yl)methyl)bicyclo[2.2.1]heptane-1-carboxamido)-3,3-dimethylbutanoyl)-4-hydroxy-N—((R)-1-(4-(4-methylthiazol-5-yl)phenyl)-2-morpholinoethyl)pyrrolidine-2-carboramide] |  |  |  |  |  | SMARC A2 Hela HiBit Dmax (%) ([1]; Hela SMARCA2-HiBiT cells, 24 hours treatment): A (A (>90% degradation)); DC50 ([1]; read-out: SMARC A2 Hela HiBit DC50): < 100 nM; SMARC A4 Hela HiBit Dmax(%) [2, 3]: A (A (>90% degradation)); DC50 [2]: < 100 nM
Cc1ncsc1-c1ccc([C@H](C)NC(=O)[C@@H]2C[C@@H](O)CN2C(=O)[C@@H](NC(=O)CCCN2CCC(c3ccc4c(c3)C3(CCCCC3)c3nc(=O)c5c(Cl)cccc5n3-4)CC2)C(C)(C)C)cc1 [Compound A7, (2S,4R)-1-((S)-2-(4-(4-(4′-chloro-5′-oxo-5′H-spiro[cyclohexane-1,7′-indolo[1,2-a]quinazolin]-9′-yl)piperidin-1-yl)butanamido)-3,3-dimethylbutanoyl)-4-hydroxy-N—((S)-1-(4-(4-methylthiazol-5-yl)phenyl)ethyl) pyrrolidine-2-carboxamide] | 100 to 500 |  |  |  |  | Dmax [1, 7]: 70 to 90%; Dmax [2, 8]: < 50%; SMARC A4 Hela HiBit DC50(nM) [2, 3]: No fit
Cc1ncsc1-c1ccc([C@H](CCCCCN2CCC(c3ccc4c(c3)-n3c(nc(=O)c5c(Br)cccc53)C43CCCCC3)CC2)NC(=O)[C@H]2C[C@H](O)CN2C(=O)[C@@H](n2cc(C3CC3)nn2)C(C)(C)C)cc1 [Compound A36, (2R,4S)—N—((S)-6-(4-(4′-bromo-5′-oxo-5′H-spiro[cyclohexane-1,7′-indolo[1,2-a]quinazolin]-10′-yl)piperidin-1-yl)-1-(4-(4-methylthiazol-5-yl)phenyl)hexyl)-1-((S)-2-(4-cyclopropyl-1H-1,2,3-triazol-1-yl)-3,3-dimethylbutanoyl)-4-hydroxypyrrolidine-2-carboxamide] | < 100 | > 90 | < 100 |  | > 90 | 
Cc1ncsc1-c1ccc([C@H](CN2CCS(=O)(=O)CC2)NC(=O)[C@@H]2C[C@@H](O)CN2C(=O)[C@@H](n2cc([C@H]3CC[C@H](CN4CCC(c5ccc6c(c5)-n5c(nc(=O)c7c(Cl)cccc75)C65CCCCC5)CC4)CC3)nn2)C(C)(C)C)cc1 [Compound A72, (2S,4R)-1-((S)-2-(4-((1r,4S)-4-((4-(4′-chloro-5′-oxo-5′H-spiro[cyclohexane-1,7′-indolo[1,2-a]quinazolin]-10′-yl)piperidin-1-yl)methyl)cyclohexyl)-1H-1,2,3-triazol-1-yl)-3,3-dimethylbutanoyl)-N—((R)-2-(1,1-dioxidothiomorpholino)-1-(4-(4-methylthiazol-5-yl)phenyl)ethyl)-4-hydroxypyrrolidine-2-carboxamide] | < 100 | > 90 | > 1000 |  | < 50 | 
Cc1ncsc1-c1ccc([C@H](CN2CCC(C(F)(F)F)CC2)NC(=O)[C@@H]2C[C@@H](O)CN2C(=O)[C@@H](n2cc([C@H]3CC[C@H](CN4CCC(c5ccc6c(c5)-n5c(nc(=O)c7c(Cl)cccc75)C65CCCCC5)CC4)CC3)nn2)C(C)(C)C)cc1 [Compound A83, (2S,4R)-1-((S)-2-(4-((1r,4S)-4-((4-(4′-chloro-5′-oxo-5′H-spiro[cyclohexane-1,7′-indolo[1,2-a]quinazolin]-10′-yl)piperidin-1-yl)methyl)cyclohexyl)-1H-1,2,3-triazol-1-yl)-3,3-dimethylbutanoyl)-4-hydroxy-N-(®-1-(4-(4-methylthiazol-5-yl)phenyl)-2-(4-(trifluoromethyl)piperidin-1-yl)ethyl)pyrrolidine-2-carboxamide] | < 10 | > 90 | > 1000 | 50 to 69 |  | 
Cc1ncsc1-c1ccc([C@H](C)NC(=O)[C@@H]2C[C@@H](O)CN2C(=O)[C@@H](NC(=O)[C@H]2CC[C@H](CN3CCC(c4ccc5c(n4)-n4c(nc(=O)c6c(Br)cccc64)C54CCCCC4)CC3)CC2)C(C)(C)C)cc1 [Compound A51, (2S,4R)-1-((S)-2-((1r,4S)-4-((4-(4′-bromo-5′-oxo-5′H-spiro[cyclohexane-1,7′-pyrido[3′,2′: 4,5]pyrrolo[1,2-a]quinazolin]-10′-yl)piperidin-1-yl)methyl)cyclohexane-1-carboxamido)-3,3-dimethylbutanoyl)-4-hydroxy-N—((S)-1-(4-(4-methylthiazol-5-yl)phenyl)ethyl)pyrrolidine-2-carboxamide] |  |  |  |  |  | Dmax [1, 7]: 50 to 69%; DC50 ([1]; read-out: SMARC A2 Hela HiBit DC50; Hela SMARCA2-HiBiT cells, 24 hours treatment): 501 to 1000 nM; Dmax [2, 8]: < 50%; SMARC A4 Hela HiBit DC50(nM) [2, 3]: No Fit
Cc1ncsc1-c1ccc([C@H](CN2CCC(F)(F)CC2)NC(=O)[C@@H]2C[C@@H](O)CN2C(=O)[C@@H](n2cc([C@H]3CC[C@H](CN4CCC(c5ccc6c(c5)-n5c(nc(=O)c7c(Cl)cccc75)C65CCCCC5)CC4)CC3)nn2)C(C)(C)C)cc1 [Compound A75, (2S,4R)-1-((S)-2-(4-((1r,4S)-4-((4-(4′-chloro-5′-oxo-5′H-spiro[cyclohexane-1,7′-indolo[1,2-a]quinazolin]-10′-yl)piperidin-1-yl)methyl)cyclohexyl)-1H-1,2,3-triazol-1-yl)-3,3-dimethylbutanoyl)-N—((R)-2-(4,4-difluoropiperidin-1-yl)-1-(4-(4-methylthiazol-5-yl)phenyl)ethyl)-4-hydroxypyrrolidine-2-carboxamide] | < 100 | > 90 | > 1000 |  | < 50 | 

More lines, main results first:

DC50 [1, 4] [nM] | Dmax [1, 5] [%] | DC50 [2, 3] [nM] | Dmax [2, 6] [%] | Dmax [2, 9] [%] | SMILES | other results
< 10 | > 90 | > 1000 | 50 to 69 |  | Cc1ncsc1-c1ccc([C@H](CN2CCOCC2)NC(=O)[C@@H]2C[C@@H](O)CN2C(=O)[C@@H](n2cc([C@H]3CC[C@H](CN4CCC(c5ccc6c(c5)-n5c(nc(=O)c7c(Br)cccc75)C65CCCCC5)CC4)CC3)nn2)C(C)(C)O)cc1 [Compound A160, (2S,4R)-1-((S)-2-(4-((1r,4S)-4-((4-(4′-bromo-5′-oxo-5′H-spiro[cyclohexane-1,7′-indolo[1,2-a]quinazolin]-10′-yl)piperidin-1-yl)methyl)cyclohexyl)-1H-1,2,3-triazol-1-yl)-3-hydroxy-3-methylbutanoyl)-4-hydroxy-N-((R)-1-(4-(4-methylthiazol-5-yl)phenyl)-2-morpholinoethyl)pyrrolidine-2-carboxamide] | 
< 10 | > 90 | 10 to 100 | 70 to 90 |  | Cc1ncsc1-c1ccc([C@H](C)NC(=O)[C@@H]2C[C@@H](O)CN2C(=O)[C@H](C2CCCCC2)n2cc([C@H]3CC[C@H](CN4CCC(c5ccc6c(c5)-n5c(nc(=O)c7c(Br)cccc75)C65CCCCC5)CC4)CC3)nn2)cc1 [Compound A119, (2S,4R)-1-((S)-2-(4-((1r,4S)-4-((4-(4′-bromo-5′-oxo-5′H-spiro[cyclohexane-1,7′-indolo[1,2-a]quinazolin]-10′-yl)piperidin-1-yl)methyl)cyclohexyl)-1H-1,2,3-triazol-1-yl)-2-cyclohexylacetyl)-4-hydroxy-N—((S)-1-(4-(4-methylthiazol-5-yl)phenyl)ethyl)pyrrolidine-2-carboxamide] | 
< 10 | > 90 | 10 to 100 | 50 to 69 |  | Cc1ncsc1-c1ccc([C@H](CO)NC(=O)[C@@H]2C[C@@H](O)CN2C(=O)[C@H](C2CCCCC2)n2cc([C@H]3CC[C@H](CN4CCC(c5ccc6c(c5)-n5c(nc(=O)c7c(Cl)cccc75)C65CCCCC5)CC4)CC3)nn2)cc1 [Compound A126, (2S,4R)-1-((S)-2-(4-((1r,4S)-4-((4-(4′-chloro-5′-oxo-5′H-spiro[cyclohexane-1,7′-indolo[1,2-a]quinazolin]-10′-yl)piperidin-1-yl)methyl)cyclohexyl)-1H-1,2,3-triazol-1-yl)-2-cyclohexylacetyl)-4-hydroxy-N—((R)-2-hydroxy-1-(4-(4-methylthiazol-5-yl)phenyl)ethyl)pyrrolidine-2-carboxamide] | 
